This passage reports GI50 and TGI results from PubChem BioAssay (NCI).

Each structure is given as a SMILES string.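 Grown in 96-well plates, cells were treated for 48 hours with each compound at five concentrations. Insufficient inhibition: endpoint recorded as highest concentration tested. GI50 marks 50% less growth. TGI: concentration producing complete growth inhibition.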

Among the test systems are MCF7 breast; HOP-92 NSCLC; NCI-H460 lung; COLO 205 colon; NCI/ADR-RES ovarian; MDA-MB-435; NCI-H226 lung; OVCAR-4 ovarian; ACHN renal; UACC-257 melanoma.
Holding throughout (test): NCI anticancer screen, dose series, 48 h

On to `COCCn1cc(-c2nc(-c3cc4cccnc4[nH]3)cs2)c2cc(OC)ccc21`, for which the GI50 in the assay with MCF7 breast is 0.0433 µM; in the assay with HOP-92 NSCLC, 0.387 µM; in the assay on NCI-H460 lung, 1.1 µM; with COLO 205 colon, 4.01 µM; in the assay with NCI/ADR-RES ovarian it was 2.95 µM; in the assay with MDA-MB-435, 5.27 µM. Moreover, the GI50 was 1.57 µM in the assay on NCI-H226 lung, 0.0278 µM in the assay on OVCAR-4 ovarian, 2.61 µM in the assay with ACHN renal and 4.26 µM in the assay on UACC-257 melanoma. The TGI in the assay on MCF7 breast was 2.67 µM; with HOP-92 NSCLC, 2.46 µM; in the assay with NCI-H460 lung, 12.9 µM; in the assay with COLO 205 colon, 24.7 µM; with NCI/ADR-RES ovarian it was 23.8 µM; in the assay with MDA-MB-435, > 100 µM. Also, the TGI in the assay with NCI-H226 lung is 27.6 µM; in the assay on OVCAR-4 ovarian, > 30.8 µM; in the assay with ACHN renal it was > 100 µM; in the assay on UACC-257 melanoma it was 9.81 µM.

With `c1ccc(Nc2ncc(-c3ccccc3)o2)cc1`, the GI50 was 12.4 µM in the assay on MCF7 breast; > 25 µM with HOP-92 NSCLC; 25 µM with NCI-H460 lung; > 25 µM with COLO 205 colon; > 25 µM with NCI/ADR-RES ovarian; > 25 µM in the assay with MDA-MB-435. The GI50 was > 25 µM in the assay on NCI-H226 lung, > 21.1 µM in the assay on OVCAR-4 ovarian, > 25 µM in the assay on ACHN renal and > 25 µM in the assay with UACC-257 melanoma. Moreover, the TGI in the assay with MCF7 breast, with HOP-92 NSCLC, with NCI-H460 lung, with COLO 205 colon, with NCI/ADR-RES ovarian and in the assay with MDA-MB-435 was > 25 µM each time. Besides, the TGI with NCI-H226 lung, in the assay with OVCAR-4 ovarian, in the assay on ACHN renal and in the assay on UACC-257 melanoma was > 25 µM in each case.

Regarding `CC[C@@H](c1ccc(O)c(O)c1)[C@@H](CC)c1ccc(O)c(O)c1`, the GI50 in the assay with MCF7 breast was 34.9 µM; in the assay on HOP-92 NSCLC, 2.02 µM; in the assay on NCI-H460 lung, 26.1 µM; in the assay with COLO 205 colon, 1.97 µM; with NCI/ADR-RES ovarian, 10.1 µM; with MDA-MB-435 it was 3.47 µM. In addition, the GI50 is 21.1 µM in the assay with NCI-H226 lung, 4.6 µM with OVCAR-4 ovarian, 1.94 µM in the assay with ACHN renal and 14.9 µM with UACC-257 melanoma. Besides, the TGI with MCF7 breast was > 100 µM; in the assay on HOP-92 NSCLC, 6.09 µM; in the assay on NCI-H460 lung it was 62 µM; in the assay with COLO 205 colon, 4.11 µM; with NCI/ADR-RES ovarian it was 62.7 µM; in the assay with MDA-MB-435, 15.1 µM. Moreover, the TGI in the assay on NCI-H226 lung worked out at 44 µM; in the assay with OVCAR-4 ovarian, 39.3 µM; in the assay with ACHN renal, 4.03 µM; in the assay on UACC-257 melanoma it was 38.1 µM.

As to `Cc1ccc(NC2=C3CCCCC3OC2=O)cc1` (centres undefined), the GI50 was 20.5 µM in the assay with MCF7 breast; > 100 µM in the assay with NCI-H460 lung; 78.1 µM in the assay on COLO 205 colon; > 100 µM in the assay on NCI/ADR-RES ovarian; 55.2 µM with MDA-MB-435; 87.1 µM in the assay on NCI-H226 lung. Moreover, the results for the GI50 in the assay on OVCAR-4 ovarian, in the assay with ACHN renal and with UACC-257 melanoma were 43.2 µM, > 100 µM and 63.1 µM, respectively. Moreover, the TGI in the assay with MCF7 breast, in the assay with NCI-H460 lung, in the assay with COLO 205 colon, in the assay with NCI/ADR-RES ovarian, in the assay with MDA-MB-435 and in the assay with NCI-H226 lung was > 100 µM each time. Further, the TGI with OVCAR-4 ovarian, with ACHN renal and with UACC-257 melanoma was > 100 µM in each case.

Turning to `C=C1C[C@H](O)[C@H](Br)C(C)(C)[C@@]12CCC(C)=C(Cl)C2`, the GI50 is 0.275 µM in the assay with MCF7 breast; 0.208 µM in the assay with HOP-92 NSCLC; 0.263 µM with NCI-H460 lung; 0.157 µM in the assay with COLO 205 colon; 0.247 µM in the assay with NCI/ADR-RES ovarian; 0.327 µM with MDA-MB-435. For the same molecule, the GI50 in the assay on OVCAR-4 ovarian is 0.155 µM; in the assay with ACHN renal it was 0.369 µM. Besides, the TGI with MCF7 breast was 1.97 µM; with HOP-92 NSCLC it was 0.802 µM; in the assay on NCI-H460 lung, 1.61 µM; with COLO 205 colon, 0.51 µM; in the assay on NCI/ADR-RES ovarian it was 11.2 µM; in the assay with MDA-MB-435, 1.72 µM. Besides, the TGI in the assay with OVCAR-4 ovarian was determined as 7.81 µM; in the assay on ACHN renal, 10.7 µM.

For `Cc1cc(Nc2ccc(C)c(Cl)c2)n2nc(C(F)(F)F)nc2n1`, the GI50 in the assay with MCF7 breast was 22.7 µM; in the assay on HOP-92 NSCLC, 18 µM; with NCI-H460 lung, 20.9 µM; in the assay on COLO 205 colon, 23.5 µM; in the assay on NCI/ADR-RES ovarian, 27.1 µM; in the assay on MDA-MB-435, 19 µM. Also, the GI50 is 23.2 µM in the assay on NCI-H226 lung, 25.8 µM in the assay with OVCAR-4 ovarian and 16.3 µM in the assay on ACHN renal. Moreover, the TGI in the assay with MCF7 breast was > 100 µM; in the assay with HOP-92 NSCLC, 59.4 µM; in the assay on NCI-H460 lung, 78.7 µM; in the assay on COLO 205 colon, 70.1 µM; in the assay on NCI/ADR-RES ovarian it was > 100 µM; in the assay on MDA-MB-435 it was 55.6 µM. Further, the results for the TGI with NCI-H226 lung, in the assay with OVCAR-4 ovarian and in the assay on ACHN renal were > 100 µM, > 100 µM and 35.9 µM, respectively.

Turning to `COc1cc2c(cc1OC)-c1cc(OC)c(OC)cc1C(CN(C)C)C2` (centres undefined), the GI50 in the assay with MCF7 breast was > 10 µM; in the assay on HOP-92 NSCLC, 9.97 µM; in the assay on NCI-H460 lung it was > 10 µM; in the assay on NCI/ADR-RES ovarian, > 10 µM; with MDA-MB-435 it was > 10 µM; with NCI-H226 lung, > 10 µM. The GI50 in the assay with OVCAR-4 ovarian, in the assay with ACHN renal and with UACC-257 melanoma was > 10 µM throughout. Also, the TGI with MCF7 breast, in the assay with HOP-92 NSCLC, in the assay on NCI-H460 lung, with NCI/ADR-RES ovarian, in the assay with MDA-MB-435 and with NCI-H226 lung was > 10 µM in each case. Also, the TGI in the assay on OVCAR-4 ovarian, in the assay on ACHN renal and in the assay with UACC-257 melanoma was > 10 µM throughout.

In the case of `COc1ccc(Cn2c(Br)c3c(c2Br)-c2nc(N)sc2CC3)cc1`, the GI50 was 3.58 µM in the assay with MCF7 breast; 2.24 µM in the assay on HOP-92 NSCLC; 3.88 µM in the assay with NCI-H460 lung; 2.2 µM in the assay on COLO 205 colon; 4.85 µM in the assay on NCI/ADR-RES ovarian; 0.407 µM in the assay with MDA-MB-435. In addition, the GI50 with ACHN renal was 3.22 µM; with UACC-257 melanoma it was 8.48 µM. Besides, the TGI amounted to 17.6 µM in the assay on MCF7 breast; 14 µM in the assay with HOP-92 NSCLC; 17.3 µM in the assay with NCI-H460 lung; 4.42 µM in the assay on COLO 205 colon; 53.5 µM in the assay on NCI/ADR-RES ovarian; 10.4 µM in the assay on MDA-MB-435. Further, the figures for the TGI in the assay with ACHN renal and in the assay on UACC-257 melanoma were 12 µM and 22.3 µM, respectively.

`COC1=CC(=O)C(C2(OC(C)C)OC(=O)C(Cl)=C2Cl)=CC1=O` (centres undefined): the TGI with MCF7 breast, with HOP-92 NSCLC, in the assay on NCI-H460 lung, in the assay with COLO 205 colon, with NCI/ADR-RES ovarian and with MDA-MB-435 was > 100 µM in each case. Also, the TGI with NCI-H226 lung, with ACHN renal and with UACC-257 melanoma was > 100 µM in each case.

With `C#Cc1cccc(Nc2nc3cc([N+](=O)[O-])ccc3nc2Nc2ccc(O)cc2)c1`, the GI50 was 2.2 µM in the assay on MCF7 breast; 1.79 µM in the assay with HOP-92 NSCLC; 1.9 µM in the assay with COLO 205 colon; 1.84 µM in the assay on NCI/ADR-RES ovarian; 1.67 µM in the assay on MDA-MB-435; 1.99 µM in the assay on OVCAR-4 ovarian. Also, the GI50 was 1.61 µM in the assay with ACHN renal and 2.09 µM in the assay with UACC-257 melanoma. Further, the TGI in the assay on MCF7 breast is 6.11 µM; in the assay on HOP-92 NSCLC it was 3.6 µM; in the assay with COLO 205 colon, 3.71 µM; with NCI/ADR-RES ovarian, 4.37 µM; in the assay on MDA-MB-435 it was 3.39 µM; in the assay with OVCAR-4 ovarian, 5.03 µM. The TGI in the assay with ACHN renal turned out to be 4.01 µM; in the assay on UACC-257 melanoma, 4.34 µM.

With `C=C(C)C12OC1[C@@]1(C)C(=CC2=O)CCC(O)[C@@H]1C` (some centres undefined), the TGI with MCF7 breast is > 100 µM; with HOP-92 NSCLC, 93.9 µM; in the assay with NCI-H460 lung, 11.4 µM; in the assay on COLO 205 colon it was 6.5 µM; with MDA-MB-435 it was 21.1 µM; in the assay on OVCAR-4 ovarian, > 100 µM. Moreover, the values for the TGI in the assay on ACHN renal and with UACC-257 melanoma were 2.42 µM and > 100 µM, respectively.

As for `Cc1cc2c(cc1C)[n+](=O)c(C(=O)c1ccccc1)c(C(F)F)n2[O-]`, the GI50 in the assay on MCF7 breast was 12.1 µM; with HOP-92 NSCLC, 37.7 µM; in the assay with NCI-H460 lung, 5 µM; in the assay with COLO 205 colon it was 9.83 µM; in the assay with NCI/ADR-RES ovarian, 36.3 µM; in the assay on MDA-MB-435, 26.3 µM. Besides, the GI50 in the assay on NCI-H226 lung was 25.5 µM; with OVCAR-4 ovarian, 14.2 µM; in the assay on ACHN renal, 18 µM. Moreover, the TGI with MCF7 breast was 41.1 µM; in the assay on HOP-92 NSCLC, > 100 µM; in the assay on NCI-H460 lung, > 100 µM; with COLO 205 colon it was 35.5 µM; with NCI/ADR-RES ovarian it was > 100 µM; with MDA-MB-435 it was > 100 µM. Besides, the TGI in the assay with NCI-H226 lung was 72.9 µM; in the assay on OVCAR-4 ovarian it was > 100 µM; in the assay on ACHN renal, > 100 µM.

As to `O=C1OCC2=C1C(c1cccc(Br)c1)c1cc3c(cc1N2CCO)OCCO3` (centres undefined), the GI50 was 0.103 µM with MCF7 breast; 0.0588 µM with NCI-H460 lung; 0.079 µM with COLO 205 colon; 0.0635 µM in the assay on NCI/ADR-RES ovarian; 0.072 µM in the assay on NCI-H226 lung; 0.131 µM with OVCAR-4 ovarian. For the same molecule, the GI50 in the assay on ACHN renal was 0.103 µM; in the assay on UACC-257 melanoma, 0.0261 µM. The TGI is > 50 µM in the assay with MCF7 breast; 2.21 µM with NCI-H460 lung; 0.371 µM with COLO 205 colon; 0.273 µM in the assay on NCI/ADR-RES ovarian; 0.0241 µM in the assay with MDA-MB-435; 0.738 µM in the assay with NCI-H226 lung. Further, the TGI in the assay with OVCAR-4 ovarian was > 50 µM; in the assay on ACHN renal, > 34 µM; in the assay with UACC-257 melanoma, 15.3 µM.
